According to publication doi:10.1101/2022.09.13.507756v1 (biorxiv, 2022):
Where two headings read alike, the source gives them in different places.

Legend:
AncCDT-5 [1] = settings: 50 mM Na2HPO4, 25 °C, 100 nM enzyme
AncCDT-5 [2] = settings: 50 mM Na2HPO4, 25 °C, 100 nM enzyme; prephenate dehydratase reaction

O=C(O)C(=O)CC1(C(=O)O)C=CC(O)C=C1 (centres unmarked) [prephenate]
Km (AncCDT-5 [1]): 178 ± 27.1 µM
Km (AncCDT-5 [2]): 169 ± 22.9 µM
